Reference: US6627628B1, “Substituted 4-amino-2-aryl-cyclopenta[d]pyrimidines, their production and use and pharmaceutical preparations containing same” (Aventis Pharma Deutschland, GmbH, priority 1998, dated 2003)

melting point	Compound
165 °C	COc1ccc(-c2nc3c(c(NCCCO)n2)CCC3)cc1 [Example 54, 2-(4-Methoxyphenyl)-4-(3-hydroxypropylamino)-6,7-dihydro-5H-cyclopenta[d]-pyrimidine]
247 °C	N#Cc1ccc(-c2nc3c(c(N4CCOCC4)n2)CCC3)cc1 [Example 73, 2-(4-Cyanophenyl)-4-morpholino-6,7-dihydro-5H-cyclopenta[d]pyrimidine]
120 °C	CCCN(CCC)c1nc(-c2cc(Cl)cc(Cl)c2)nc2c1CCC2 [Example 52, 2-(3,5-Dichlorophenyl)-4-dipropylamino-6,7-dihydro-5H-cyclopenta[d]pyrimidine]
208 °C	COCCNc1nc(-c2ccc(Cl)cc2)nc2c1CCC2.Cl
107 °C	COCCCNc1nc(-c2ccc(OC)c(OC)c2)nc2c1CCC2 [Example 62, 2-(3,4-Dimethoxyphenyl)-4-(3-methoxypropylamino)-6,7-dihydro-5H-cyclopenta-[d]pyrimidine]
150 °C	Clc1cccc(-c2nc3c(c(N4CCCC4)n2)CCC3)c1 [Example 36, 2-(3-Chlorophenyl)-4-pyrrolidino-6,7-dihydro-5H-cyclopenta[d]pyrimidine]
203 °C	Cc1ccc(-c2nc3c(c(N4CCCC4)n2)CCC3)cc1 [Example 46, 2-(4-Methylphenyl)-4-pyrrolidino-6,7-dihydro-5H-cyclopenta[d]pyrimidine]
154 °C	COc1ccc(-c2nc3c(c(NC4CCCC4)n2)CCC3)cc1 [Example 56, 2-(4-Methoxyphenyl)-4-cyclopentylamino-6,7-dihydro-5H-cyclopenta[d]-pyrimidine]
74 °C	CCCN(CCC)c1nc(-c2ccc(OC)cc2)nc2c1CCC2 [Example 59, 2-(4-Methoxyphenyl)-4-dipropylamino-6,7-dihydro-5H-cyclopenta[d]pyrimidine]
168 °C	N#Cc1ccc(-c2nc3c(c(NCc4ccccc4)n2)CCC3)cc1 [Example 70, 2-(4-Cyanophenyl)-4-benzylamino-6,7-dihydro-5H-cyclopenta[d]pyrimidine]
115 °C	CCCCNc1nc(-c2ccc(OC)c(OC)c2)nc2c1CCC2 [Example 65, 2-(3,4-Dimethoxyphenyl)-4-butylamino-6,7-dihydro-5H-cyclopenta[d]pyrimidine]
130 °C	COCCCNc1nc(-c2ccc(C#N)cc2)nc2c1CCC2 [Example 69, 2-(4-Cyanophenyl)-4-(3-methoxypropylamino)-6,7-dihydro-5H-cyclopenta[d]-pyrimidine]
159 °C	Clc1ccc(-c2nc3c(c(N4CCSCC4)n2)CCC3)cc1 [Example 24, 2-(4-Chlorophenyl)-4-thiomorpholino-6,7-dihydro-5H-cyclopenta[d]pyrimidine]
152 °C	N#Cc1ccc(-c2nc3c(c(N4CCCCC4)n2)CCC3)cc1 [Example 72, 2-(4-Cyanophenyl)-4-piperidino-6,7-dihydro-5H-cyclopenta[d]pyrimidine]
182 °C	CC1(C)CC(Nc2nc(-c3cccc(Cl)c3)nc3c2CCC3)CC(C)(C)N1 [Example 31, 2-(3-Chlorophenyl)-4-(2,2,6,6-tetramethylpiperidin-4-ylamino)-6,7-dihydro-5H-cyclopenta[d]pyrimidine]
230 °C	COc1cccc(CCNc2nc(-c3ccc(Cl)cc3)nc3c2CCC3)c1.Cl
132 °C	Clc1cccc(-c2nc3c(c(N4CCOCC4)n2)CCC3)c1 [Example 20, 2-(3-Chlorophenyl)-4-morpholino-6,7-dihydro-5H-cyclopenta[d]pyrimidine]
275 °C	Cl.Cl.Clc1ccc(-c2nc3c(c(N(Cc4ccccc4)C4CCNCC4)n2)CCC3)cc1
185 °C	Clc1cccc(-c2nc3c(c(NCc4cccnc4)n2)CCC3)c1 [Example 22, 2-(3-Chlorophenyl)-4-((3-pyridylmethyl)amino)-6,7-dihydro-5H-cyclopenta[d]-pyrimidine]
107 °C	CCCN(CCC)c1nc(-c2ccc(OC)c(OC)c2)nc2c1CCC2 [Example 66, 2-(3,4-Dimethoxyphenyl)-4-dipropylamino-6,7-dihydro-5H-cyclopenta[d]-pyrimidine]

melting point	Compound
191 °C	Cc1ccc(-c2nc3c(c(NCCO)n2)CCC3)cc1 [Example 39, 2-(4-Methylphenyl)-4-(2-hydroxyethylamino)-6,7-dihydro-5H-cyclopenta[d]-pyrimidine]
121 °C	CC(C)CNc1nc(-c2ccc(Cl)cc2)nc2c1CCC2 [Example 29, 2-(4-Chlorophenyl)-4-isobutylamino-6,7-dihydro-5H-cyclopenta[d]pyrimidine]
150 °C	OCCNc1nc(-c2cccc(Cl)c2)nc2c1CCC2 [Example 21, 2-(3-Chlorophenyl)-4-(2-hydroxyethylamino)-6,7-dihydro-5H-cyclopenta[d]-pyrimidine]
192 °C	COc1ccc(-c2nc3c(c(N4CCOCC4)n2)CCC3)cc1 [Example 61, 2-(4-Methoxyphenyl)-4-morpholino-6,7-dihydro-5H-cyclopenta[d]pyrimidine]
134 °C	Clc1cccc(-c2nc3c(c(N4CCSCC4)n2)CCC3)c1 [Example 38, 2-(3-Chlorophenyl)-4-thiomorpholino-6,7-dihydro-5H-cyclopenta[d]pyrimidine]
160 °C	OCCNc1nc(-c2ccc(Cl)cc2)nc2c1CCC2 [Example 18, 2-(4-Chlorophenyl)-4-(2-hydroxyethylamino)-6,7-dihydro-5H-cyclopenta[d]-pyrimidine]
119 °C	CCCCNc1nc(-c2ccc(OC)cc2)nc2c1CCC2 [Example 55, 2-(4-Methoxyphenyl)-4-butylamino-6,7-dihydro-5H-cyclopenta[d]pyrimidine]
70 °C	COc1ccc(-c2nc3c(c(NC4CCCCC4)n2)CCC3)cc1OC [Example 64, 2-(3,4-Dimethoxyphenyl)-4-cyclohexylamino-6,7-dihydro-5H-cyclopenta[d]-pyrimidine]
145 °C	COc1ccc(-c2nc3c(c(NCCc4ccccc4Cl)n2)CCC3)cc1 [Example 58, 2-(4-Methoxyphenyl)-4-(2-(2-chlorophenyl)ethylamino)-6,7-dihydro-5H-cyclopenta[d]pyrimidine]
160 °C	Cc1ccc(-c2nc3c(c(N4CCSCC4)n2)CCC3)cc1 [Example 47, 2-(4-Methylphenyl)-4-thiomorpholino-6,7-dihydro-5H-cyclopenta[d]pyrimidine]
142 °C	COc1ccc(-c2nc3c(c(N4CC(C)OC(C)C4)n2)CCC3)cc1OC (stereo not shown) [Example 67, 2-(3,4-Dimethoxyphenyl)-4-(2,6-dimethylmorpholino)-6,7-dihydro-5H-cyclopenta[d]pyrimidine]
138 °C	COc1ccc(-c2nc3c(c(NC4CCCC4)n2)CCC3)cc1OC [Example 63, 2-(3,4-Dimethoxyphenyl)-4-cyclopentylamino-6,7-dihydro-5H-cyclopenta[d]-pyrimidine]
192 °C	COc1cccc(CCNc2nc(-c3cccc(Cl)c3)nc3c2CCC3)c1.Cl
130 °C	CCN(CC)c1nc(-c2ccc(C#N)cc2)nc2c1CCC2 [Example 71, 2-(4-Cyanophenyl)-4-diethylamino-6,7-dihydro-5H-cyclopenta[d]pyrimidine]
147 °C	Clc1cc(Cl)cc(-c2nc3c(c(N4CCCCC4)n2)CCC3)c1 [Example 53, 2-(3,5-Dichlorophenyl)-4-piperidino-6,7-dihydro-5H-cyclopenta[d]pyrimidine]
138 °C	COc1ccc(-c2nc3c(c(NC4CCCCC4)n2)CCC3)cc1 [Example 57, 2-(4-Methoxyphenyl)-4-cyclohexylamino-6,7-dihydro-5H-cyclopenta[d]-pyrimidine]
115 °C	COc1ccc(-c2nc3c(c(N(CCO)CCO)n2)CCC3)cc1OC [Example 68, 2-(3,4-Dimethoxyphenyl)-4-(di-(2-hydroxyethyl)amino)-6,7-dihydro-5H-cyclopenta[d]pyrimidine]
209 °C	Clc1ccc(-c2nc3c(c(NCc4cccnc4)n2)CCC3)cc1 [Example 19, 2-(4-Chlorophenyl)-4-((3-pyridylmethyl)amino)-6,7-dihydro-5H-cyclopenta[d]-pyrimidine]
219 °C	N#Cc1ccc(-c2nc3c(c(NCc4cccnc4)n2)CCC3)cc1 [Example 74, 2-(4-Cyanophenyl)-4-((3-pyridylmethyl)amino)-6,7-dihydro-5H-cyclopenta[d]-pyrimidine]
99 °C	COc1ccc(-c2nc3c(c(N4CCCCCC4)n2)CCC3)cc1 [Example 60, 2-(4-Methoxyphenyl)-4-hexamethyleneimino-6,7-dihydro-5H-cyclopenta[d]-pyrimidine]
